Experimental data as given in ChEMBL document CHEMBL1201862, “PubChem BioAssay data set” (2004).
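Growth conditions: 96-well plates. Treatment: test compound, 48 hours, 5 concentrations. Analysis: linear interpolation between bracketing concentrations; unreached endpoints set to highest concentration. GI50: concentration for 50% inhibition of growth.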 Activity calls are given as the source filed them. No stated cut-off is given here; in the data, active = GI50 up to about 1.1 µM and inactive = higher.

Tests used:
Test in all cases: NCI tumour cell line growth inhibition, 48 h
HCT-15 = system: HCT-15
UACC-257 = system: UACC-257
SK-OV-3 = system: SK-OV-3
HCC 2998 = system: HCC 2998
UACC-62 = system: UACC-62
IGROV-1 = system: IGROV-1
TK-10 = system: TK-10
RPMI-8226 = system: RPMI-8226
NCI-H226 = system: NCI-H226
PC-3 = system: PC-3
NCI-H23 = system: NCI-H23
SF-268 = system: SF-268
U-251 = system: U-251
NCI-H460 = system: NCI-H460
NCI/ADR-RES = system: NCI/ADR-RES
A549 = system: A549
HT-29 = system: HT-29
T47D = system: T47D
MDA-MB-435 = system: MDA-MB-435
HCT-116 = system: HCT-116

Row | Structure (SMILES) | GI50 (HCT-15) [µM] | GI50 (UACC-257) | GI50 (SK-OV-3) | GI50 (HCC 2998) | GI50 (UACC-62) | GI50 (IGROV-1) | GI50 (TK-10) | GI50 (RPMI-8226) | GI50 (NCI-H226) | GI50 (PC-3) | GI50 (NCI-H23) | GI50 (SF-268) | GI50 (U-251) | GI50 (NCI-H460) | GI50 (NCI/ADR-RES) | GI50 (A549) | GI50 (HT-29) | GI50 (T47D) | GI50 (MDA-MB-435) | GI50 (HCT-116)
1 | CCC/C=C/c1cc2c(cc1O)CC[C@@H]1[C@@H]2CC[C@]2(C)[C@@H](O)CC[C@@H]12 | 18.6 | 15.8 µM (inactive) | 26.8 µM (inactive) | 21.5 µM (inactive) | 14.5 µM (inactive) | 21.1 µM (inactive) | 20.7 µM (inactive) | 14 µM (inactive) | 24.7 µM (inactive) | 15.8 µM (inactive) | 17.5 µM (inactive) | 18.4 µM (inactive) | 16.9 µM (inactive) | 17.4 µM (inactive) | 18.5 µM (inactive) | 18.1 µM (inactive) | 18.4 µM (inactive) | 24.9 µM (inactive) | 15.7 µM (inactive) | 
2 | O=S(=O)(O)c1ccc(Nc2ccnc3ccccc23)cc1 | > 100 | > 100 µM (inactive) | > 100 µM (inactive) | > 100 µM (inactive) | > 100 µM (inactive) | > 100 µM (inactive) | > 100 µM (inactive) | > 100 µM (inactive) | > 100 µM (inactive) | > 100 µM (inactive) | > 100 µM (inactive) | > 100 µM (inactive) | > 100 µM (inactive) |  | > 100 µM (inactive) | > 100 µM (inactive) | > 100 µM (inactive) | > 100 µM (inactive) | > 100 µM (inactive) | > 100 µM (inactive)
3 | C[C@@H](Br)[C@@H]1CC[C@H]2c3[nH]c4ccccc4c3CCN2C1 | 17.5 | 27.4 µM (inactive) | 24.7 µM (inactive) | 16 µM (inactive) | 14.5 µM (inactive) | 12.1 µM (inactive) | 31.7 µM (inactive) | 13.6 µM (inactive) | 28.6 µM (inactive) | 22.4 µM (inactive) | 20.5 µM (inactive) | 26.8 µM (inactive) | 21.5 µM (inactive) | 22.5 µM (inactive) | 20.2 µM (inactive) | 34.4 µM (inactive) | 25 µM (inactive) | 16.5 µM (inactive) | 16.3 µM (inactive) | 
4 | O=C1N=C(c2ccccc2)OC1C(=O)c1ccccc1 (stereo not drawn) | > 100 | > 100 µM (inactive) | > 100 µM (inactive) | > 100 µM (inactive) | > 100 µM (inactive) | 46.5 µM (inactive) | > 100 µM (inactive) | > 100 µM (inactive) | > 100 µM (inactive) | > 100 µM (inactive) | > 100 µM (inactive) | > 100 µM (inactive) | > 100 µM (inactive) | > 100 µM (inactive) | > 100 µM (inactive) | > 100 µM (inactive) | > 100 µM (inactive) | > 100 µM (inactive) | > 100 µM (inactive) | > 100 µM (inactive)
5 | CC1(c2nc3cc(Cl)c(Cl)cc3[nH]2)CCC(CO)C(C)(C)O1 (stereo not drawn) | 35.6 | 29.6 µM (inactive) | 94.2 µM (inactive) | 32.2 µM (inactive) | 17.6 µM (inactive) | 20.9 µM (inactive) | 27.6 µM (inactive) | 16.9 µM (inactive) | 12.4 µM (inactive) | 29 µM (inactive) | 25.6 µM (inactive) | 34.8 µM (inactive) | 38.6 µM (inactive) |  | 17.7 µM (inactive) | 33.6 µM (inactive) | 16.4 µM (inactive) | 32.3 µM (inactive) | 41.4 µM (inactive) | 31.4 µM (inactive)
6 | Cc1ccc(C2=Nn3c(nc4sc(C)c(C)c4c3=O)SC2)cc1 | > 100 | > 100 µM (inactive) | > 100 µM (inactive) | > 100 µM (inactive) | > 100 µM (inactive) | > 100 µM (inactive) | 23.3 µM (inactive) | > 100 µM (inactive) | > 100 µM (inactive) | > 100 µM (inactive) | > 100 µM (inactive) | > 100 µM (inactive) | > 100 µM (inactive) | > 100 µM (inactive) | > 100 µM (inactive) | > 100 µM (inactive) | > 100 µM (inactive) | > 100 µM (inactive) | > 100 µM (inactive) | > 100 µM (inactive)
7 | CSc1ccc(-c2cc(-c3nc4ccccc4[nH]3)no2)cc1 | 9.62 | 30.2 µM (inactive) | 70.5 µM (inactive) | 16.2 µM (inactive) | 16.4 µM (inactive) | 23.2 µM (inactive) | 36.6 µM (inactive) | 24.4 µM (inactive) | 40.5 µM (inactive) | 32.6 µM (inactive) | 19.1 µM (inactive) | 32 µM (inactive) |  | 18.4 µM (inactive) | 23.2 µM (inactive) | 23.6 µM (inactive) | 24.8 µM (inactive) | 5.77 µM (inactive) | 18.5 µM (inactive) | 32.5 µM (inactive)
8 | O=C(/C=C(\Nc1ccccc1O)c1ccccc1)C(=O)NC12CC3CC(CC(C3)C1)C2 | > 10 | > 10 µM (inactive) | > 10 µM (inactive) | > 10 µM (inactive) |  | > 10 µM (inactive) | > 10 µM (inactive) | 4.99 µM (inactive) | > 10 µM (inactive) | 5.65 µM (inactive) | > 10 µM (inactive) | > 10 µM (inactive) | > 10 µM (inactive) | > 10 µM (inactive) | > 10 µM (inactive) |  | 2.41 µM (inactive) | > 10 µM (inactive) | > 10 µM (inactive) | 
9 | S=C(N1CCN(c2ccccc2)CC1)N1CCN(c2ccccc2)CC1 | > 100 | > 100 µM (inactive) | > 100 µM (inactive) | > 100 µM (inactive) | > 100 µM (inactive) | 90.8 µM (inactive) | > 100 µM (inactive) | > 100 µM (inactive) | 94.6 µM (inactive) | > 100 µM (inactive) | > 100 µM (inactive) | > 100 µM (inactive) | > 100 µM (inactive) | > 100 µM (inactive) | > 100 µM (inactive) | > 100 µM (inactive) | 55.2 µM (inactive) | > 100 µM (inactive) | > 100 µM (inactive) | 81.8 µM (inactive)
10 | COc1ccc(Br)c2c1CC(C(=O)O)CC2 (stereo not drawn) | > 100 | > 100 µM (inactive) | > 100 µM (inactive) | > 100 µM (inactive) | > 100 µM (inactive) | > 100 µM (inactive) | > 100 µM (inactive) | > 100 µM (inactive) | > 100 µM (inactive) | > 100 µM (inactive) | > 100 µM (inactive) | > 100 µM (inactive) | > 100 µM (inactive) | > 100 µM (inactive) | > 100 µM (inactive) | > 100 µM (inactive) | > 100 µM (inactive) | > 100 µM (inactive) | > 100 µM (inactive) | > 100 µM (inactive)
11 | O=C(/C=C/c1csc(-c2ccccc2)n1)NCc1ccc(C(=O)NCc2ccccc2)cc1 | > 100 | > 100 µM (inactive) | > 100 µM (inactive) | > 100 µM (inactive) | > 100 µM (inactive) | 37.2 µM (inactive) | 31.9 µM (inactive) | > 100 µM (inactive) | > 100 µM (inactive) | > 100 µM (inactive) | > 100 µM (inactive) | 35.3 µM (inactive) | 32.9 µM (inactive) | > 100 µM (inactive) | 50.8 µM (inactive) | > 100 µM (inactive) | 41.2 µM (inactive) | > 100 µM (inactive) | > 100 µM (inactive) | > 100 µM (inactive)
12 | Cc1n[nH]c(=O)n1/N=C/c1cccc(Cl)c1 | > 100 | > 100 µM (inactive) | > 100 µM (inactive) | > 100 µM (inactive) | > 100 µM (inactive) |  |  | > 100 µM (inactive) | > 100 µM (inactive) | > 100 µM (inactive) | > 100 µM (inactive) | 63.7 µM (inactive) | 65.5 µM (inactive) | > 100 µM (inactive) | > 100 µM (inactive) | > 100 µM (inactive) | > 100 µM (inactive) | > 100 µM (inactive) | 94.4 µM (inactive) | > 100 µM (inactive)
13 | CC(C)/C=N\n1c(N)c(C#N)c(C#N)c1C(C)C | 24.3 | 14.7 µM (inactive) | 45.1 µM (inactive) | 13.4 µM (inactive) | 12.3 µM (inactive) | 18.3 µM (inactive) | 22.5 µM (inactive) | 14.6 µM (inactive) | 14.7 µM (inactive) | 17.1 µM (inactive) | 24 µM (inactive) | 28.1 µM (inactive) | 28.9 µM (inactive) |  | 23.3 µM (inactive) | 25.2 µM (inactive) | 33.3 µM (inactive) | 16.5 µM (inactive) | 31.3 µM (inactive) | 24.5 µM (inactive)
14 | CN1CCC/C1=N\C#N | > 100 |  | > 100 µM (inactive) | > 100 µM (inactive) | > 100 µM (inactive) | > 100 µM (inactive) | > 100 µM (inactive) | > 100 µM (inactive) | > 100 µM (inactive) | > 100 µM (inactive) | > 100 µM (inactive) | > 100 µM (inactive) | > 100 µM (inactive) | > 100 µM (inactive) | > 100 µM (inactive) | > 100 µM (inactive) | > 100 µM (inactive) | > 100 µM (inactive) | > 100 µM (inactive) | > 100 µM (inactive)
15 | ClCC[N+]12CC[N+](CCCl)(CC1)C2 | > 100 | > 100 µM (inactive) | > 100 µM (inactive) | > 100 µM (inactive) | > 100 µM (inactive) | > 100 µM (inactive) | > 100 µM (inactive) | > 100 µM (inactive) | > 100 µM (inactive) | > 100 µM (inactive) | > 100 µM (inactive) | > 100 µM (inactive) | > 100 µM (inactive) | > 87.7 µM (inactive) | > 100 µM (inactive) | > 100 µM (inactive) | > 100 µM (inactive) | > 100 µM (inactive) | > 100 µM (inactive) | > 100 µM (inactive)
